The assay can be described thus: Inhibition of Na+K+ATpase from pig cortex. Set-up: species or system Sus scrofa.

On to `C[C@@H]1O[C@@H](O[C@H]2C[C@@H](O)[C@]3(CO)[C@H]4[C@H](O)C[C@]5(C)[C@@H](C6=CC(=O)OC6)CC[C@]5(O)[C@@H]4CC[C@]3(O)C2)[C@H](O)[C@H](O)[C@H]1O` [OUABAIN], for which half-maximal inhibition (IC50) was put at 0.6 µM.

These data come from ChEMBL document CHEMBL1151616, “Na+-K+-ATPase inhibitors from Lysimachia japonica” (J Nat Prod, 1984).
